Experimental data taken from the NIST ThermoML archive (doi:10.1021/je060339m).

Conditions: Liquid

CCOC(C)=O [ethyl acetate]
Conditions | mass density [kg/m3]
343.15 K, 15000 kPa | 857.3
343.15 K, 20000 kPa | 863
343.15 K, 25000 kPa | 868.5
343.15 K, 30000 kPa | 875.1
343.15 K, 35000 kPa | 881.6
348.15 K, 100 kPa | 829.4
348.15 K, 1000 kPa | 830.5
348.15 K, 2000 kPa | 832.3
348.15 K, 3000 kPa | 833.8
348.15 K, 3800 kPa | 835
348.15 K, 5000 kPa | 836.8
348.15 K, 10000 kPa | 845.5
348.15 K, 15000 kPa | 851.8
348.15 K, 20000 kPa | 857.7
348.15 K, 25000 kPa | 863.5
348.15 K, 30000 kPa | 870.2
348.15 K, 35000 kPa | 877
353.15 K, 1000 kPa | 824.3
353.15 K, 2000 kPa | 826
353.15 K, 3000 kPa | 827.5
353.15 K, 3800 kPa | 828.8
353.15 K, 5000 kPa | 830.6
353.15 K, 10000 kPa | 837.7
353.15 K, 15000 kPa | 844.3
353.15 K, 20000 kPa | 850.4
353.15 K, 25000 kPa | 856.1
353.15 K, 30000 kPa | 862.7
353.15 K, 35000 kPa | 869.6
358.15 K, 1000 kPa | 818.4
358.15 K, 2000 kPa | 820
358.15 K, 3000 kPa | 821.6
358.15 K, 3800 kPa | 822.8
358.15 K, 5000 kPa | 824.7
358.15 K, 10000 kPa | 832.1
358.15 K, 15000 kPa | 838.9
358.15 K, 20000 kPa | 845.2
358.15 K, 25000 kPa | 851
358.15 K, 30000 kPa | 857.6
358.15 K, 35000 kPa | 864.7
363.15 K, 1000 kPa | 811.8
363.15 K, 2000 kPa | 813.5
363.15 K, 3000 kPa | 815.3
363.15 K, 3800 kPa | 816.6
363.15 K, 5000 kPa | 818.5
363.15 K, 10000 kPa | 826.3
363.15 K, 15000 kPa | 833.3
363.15 K, 20000 kPa | 839.7
363.15 K, 25000 kPa | 845.8
363.15 K, 30000 kPa | 852.9
363.15 K, 35000 kPa | 860.2
368.15 K, 1000 kPa | 804.9
368.15 K, 2000 kPa | 806.8
368.15 K, 3000 kPa | 808.6
368.15 K, 3800 kPa | 810
368.15 K, 5000 kPa | 812.1
368.15 K, 10000 kPa | 820.2
368.15 K, 15000 kPa | 827.5
368.15 K, 20000 kPa | 834.3
368.15 K, 25000 kPa | 840.6
368.15 K, 30000 kPa | 848
368.15 K, 35000 kPa | 855.5
373.15 K, 1000 kPa | 798.5
373.15 K, 2000 kPa | 800.4
373.15 K, 3000 kPa | 802.4
373.15 K, 3800 kPa | 803.8
373.15 K, 5000 kPa | 806
373.15 K, 10000 kPa | 814.4
373.15 K, 15000 kPa | 822
373.15 K, 20000 kPa | 829
373.15 K, 25000 kPa | 835.5
373.15 K, 30000 kPa | 843
373.15 K, 35000 kPa | 850.6
378.15 K, 1000 kPa | 791.8
378.15 K, 2000 kPa | 793.8
378.15 K, 3000 kPa | 795.8
378.15 K, 3800 kPa | 797.3
378.15 K, 5000 kPa | 799.6
378.15 K, 10000 kPa | 808.5
378.15 K, 15000 kPa | 816.5
378.15 K, 20000 kPa | 823.7
378.15 K, 25000 kPa | 830.5
378.15 K, 30000 kPa | 838.4
378.15 K, 35000 kPa | 846.3
383.15 K, 1000 kPa | 784.8
383.15 K, 2000 kPa | 787.1
383.15 K, 3000 kPa | 789.1
383.15 K, 3800 kPa | 790.8
383.15 K, 5000 kPa | 793.2
383.15 K, 10000 kPa | 802.4
383.15 K, 15000 kPa | 810.7
383.15 K, 20000 kPa | 818.2
383.15 K, 25000 kPa | 825.3
383.15 K, 30000 kPa | 833.5
383.15 K, 35000 kPa | 841.6
388.15 K, 1000 kPa | 778.2
388.15 K, 2000 kPa | 780.5
388.15 K, 3000 kPa | 782.7
388.15 K, 3800 kPa | 784.4
388.15 K, 5000 kPa | 786.9
388.15 K, 10000 kPa | 796.4
388.15 K, 15000 kPa | 805.1
388.15 K, 20000 kPa | 813
388.15 K, 25000 kPa | 820.3
388.15 K, 30000 kPa | 828.8
388.15 K, 35000 kPa | 837.2
393.15 K, 1000 kPa | 771
393.15 K, 2000 kPa | 773.5
393.15 K, 3000 kPa | 775.9
393.15 K, 3800 kPa | 777.7
393.15 K, 5000 kPa | 780.4
393.15 K, 10000 kPa | 790.5
393.15 K, 15000 kPa | 799.4
393.15 K, 20000 kPa | 807.6
393.15 K, 25000 kPa | 815.2
393.15 K, 30000 kPa | 823.9
393.15 K, 35000 kPa | 832.4
